Measured values: patent publication US6551815B1, “In situ denitrification” (University of New Mexico, priority 1997, dated 2003)
Where “and” joins values, the source holds several entries; their conditions need not be identical. Equal entries are not always repeated. Entries after “also recorded” stand apart in the source; their conditions may differ. Where two headings read alike, the source gives them in different places.

Legend:
[1] = test system: indigenous denitrifying bacteria naturally present in the groundwater; experiment: Serum bottle denitrification of Tuba City groundwater amended with carbon and phosphorus sources; assay type: cell-based; conditions: for concentration (as high as) at which activity of denitrifiers was not inhibited: initial nitrate about 21 mM
Description: In situ biological denitrification was studied as a groundwater remediation process with nitrogen as the final product at an UMTRA site in Tuba City, Ariz. Nitrate contaminated groundwater and soil from the contaminated field site were used, and in all experiments the initial nitrate concentration was about 1300 mg/L and the pH was 7.5-8. Denitrification was studied in a 2.5 L fermentor and in 120 mL serum bottles using a water to soil ratio of 100 mL/8 g and indigenous denitrifying bacteria naturally present in the groundwater. Oxygen was removed initially by purging with argon for 15 minutes. […] Nitrate, nitrite, carbon source, and pH changes were monitored during denitrification. Eh was indicated using a resazurin dye. […] For each carbon source, the stoichiometric equation is present, and a theoretical yield coefficient was determined from each stoichiometric equation.
The water samples were kept in 1000 mL plastic bottles and reserved in a refrigerator.
Chemicals used for phosphorus amendment included orthophosphate KH2PO4, trimetaphosphate Na3P3O9 (Sigma Co.) and polyphosphate (NaPO3)n (Aldrich Co.). All chemicals were A.C.S. reagent grade. Crushed sands were prepared by pulverizing the core samples (about 47 to 100 feet depth) from the Tuba City site using a pestle and mortar. This Navajo sandstone is a fine to fine grained unit with median grain size diameter (d50) about 0.11 mm. The sandstone was kept without contamination by organic chemicals.
(§1) Stock solution mixtures with neutral pH and total volume less than 15 mL for denitrification amendment, including carbon source and phosphorus sources, 0.05 mL of a 0.2% resazurin solution (redox potential indicator), and 8 g crushed sand for part experiments, were added into a 160 mL serum bottle, which was then autoclaved at 121° C. (250° F.) for 20 min. Groundwater sample was added under aseptic environment after the bottle cooled down, and the serum bottle was sealed with a butyl rubber stopper and crimped with an aluminum seal. Total volume of the liquid was about 100 to 120 mL. The solution was then purged with argon gas through a 22 gauge long needle for 15 min to ensure that an anaerobic environment was maintained, and another needle was used for gas exhaustion at the same time. The exhaustion needle was taken out before the spinal needle was done, and the serum bottle was pressurized under 7-10 psig. To keep the gas phase sterile, a gas filter with 0.2 μm pore size was used. Serum bottles were kept either at room temperature about 23±1° C. and shaken 2 to 3 times every day or kept at 16° C. in a Lindberg/Blue M constant temperature refrigerated shaker waterbath model RSWB3222A (A General Signal Company, NC). No denitrifying bacteria were inoculated to water samples, and pH was not controlled for all of the experiments. Denitrification process via the activity of the indigenous denitrifiers present in the groundwater was monitored. Disposable syringes were used for sampling.
The IC unit, Dionex DX 500 chromatography system (Dionex Co., CA), consists of a GP 40-1 gradient pump, an ED 40-1 electrochemical detector, and a LC 10-2 chromatography organizer with an lonpac AS 11 analytical column (4 mm) and an ASRS-1 (4 mm) anion self-regenerating suppresser as its main components. This lonpac AS 11 4-mm analytical column with functional group of alkanol quaternary ammonium is designed to resolve a number of inorganic anions and organic acid anions from a single sample injection in one gradient run using hydroxide eluent systems such as NaOH used in our experiment.

[2] = Phosphate precipitation in amended groundwater (serum bottles); assay type: physicochemical; conditions: for calcium phosphate precipitation as compared to orthophosphate: Tuba City groundwater
Description: as §1, with “The solution was then purged with argon gas through a 22 gauge long needle for 15 min to ensure that an anaerobic environment was maintained, and another needle was used for gas exhaustion at the same time.” left out
Triple serum bottle experiments were run in parallel at room temperature about 23±1° C.

indigenous bacteria = experiment: Batch denitrification of Mountainview groundwater; assay type: cell-based
[3] = complete = <1 mg/L for N, core sand, KH2PO4, 23±1° C.
[4] = groundwater with core sand, KH2PO4 100 mg/L, 23±1° C.
[5] = serum bottles purged with argon

With CO [Methanol, methanol] the “minimum C/N molar ratio for complete denitrification” value (“minimum C/N molar ratio” for short) [1, 3] was 1, the “C/N molar ratio for nearly complete denitrification (Table 5)” value (“C/N molar ratio … (Table 5)” below) [1, 4] was 1.000 and the “C/N molar ratio, minimum for nearly complete denitrification” value (“C/N molar ratio, minimum” below) [1, 4] was 1.000. The “concentration (as high as) at which activity of denitrifiers was not inhibited” value [1] was 45 mM.

With O=P1([O-])OP(=O)([O-])OP(=O)([O-])O1.[Na+].[Na+].[Na+] [TMP, trimetaphosphate] the “time to complete denitrification” value ([1]; TMP 100 mg NaPO3/L and acetate, with sand, 16° C.) was 28 days, the “denitrification time longer than with orthophosphate” value ([1]; TMP and acetate, with sand, 16° C.) was 11 days and the “calcium phosphate precipitation as compared to orthophosphate” value [2] was “reduced calcium phosphate precipitation”. For the same compound, the “phosphate precipitate observed in groundwater” value (shortened to “phosphate precipitate observed”) [2, 5] was “No phosphate precipitate was found in three weeks; also recorded: No phosphate precipitate was found while purging with argon, even in two weeks” and the “denitrification via indigenous bacteria” value (indigenous bacteria; groundwater amended with potassium acetate and 20 mg TMP/L) was “worked successfully”.

For O=P(O)(O)O [orthophosphate, reference compound], the “phosphate precipitate observed” value [2, 5] was “Precipitate of orthophosphate (0.7-0.8 mM) formed”.

With CC(=O)[O-].[K+] [Acetate, potassium acetate] the “C/N molar ratio … (Table 5)” value [1] was 1.425, the “C/N molar ratio, minimum” value [1] was 1.425 and the Denitrification efficiency [1] was 0% and 7-10%. The “minimum C/N molar ratio” value [1] was 1.425, the “nitrate reduced after two months” value [1] was 5% and the “denitrification via indigenous bacteria” value (indigenous bacteria; potassium acetate without TMP) was “did not work”.

In the case of CCO [Ethanol, ethanol], the “minimum C/N molar ratio” value [1, 3] is reported as 1.083, the “C/N molar ratio … (Table 5)” value [1, 4] is reported as 1.083 and the “C/N molar ratio, minimum” value [1, 4] is reported as 1.083. For the same compound, the “concentration (as high as) at which activity of denitrifiers was not inhibited” value [1] was 25 mM, the denitrification time ([1]; orthophosphate, whole group of experiments finished, FIG. 5(f)) was “about 3.5 weeks” and the “time at which nitrate reduction completed or stopped” value ([1]; polyphosphate 100 mg NaPO3/L, core sand, argon purge, 23±1° C., ethanol insufficient for complete denitrification) was “about 30 days”.

In the case of CC(O)C(=O)[O-].[Na+] (stereo not shown) [Lactate, sodium lactate], the “minimum C/N molar ratio” value [1, 3] is reported as 2, the “C/N molar ratio … (Table 5)” value [1, 4] is reported as 2.000 and the “C/N molar ratio, minimum” value [1, 4] is reported as 2.000.

For polyphosphate, the “calcium phosphate precipitation as compared to orthophosphate” value [2] was “reduced calcium phosphate precipitation”, the “phosphate precipitate observed” value ([2]; acetate and polyphosphate, no core sand, without purging with argon) was “Phosphate precipitate was not found; also recorded: White precipitates were not found until a week later” and the “phosphate precipitate observed” value [2, 5] was “precipitate was found right after purging with argon; also recorded: white precipitates appeared while purging with argon”.
